Test results from PMC5729930, “Bitopic fluorescent antagonists of the A2A adenosine receptor based on pyrazolo[4,3-e][1,2,4]triazolo[1,5-c]pyrimidin-5-amine functionalized congeners” (MedChemComm, 2017).
Values joined by “and” are separate entries in the source; they are usually repeats but may differ in a detail not shown here. Equal values may be shown once.

Key:
mA2AAR = biological target: T1, mA2AAR (Mus musculus, UniProt Q60613); assay: Competition radioligand binding, mA2AAR; conditions: mouse A2AAR, HEK-293 membranes, mean ± SEM; read-out: Affinity, Ki, A2A (m) (converted)
T1 construct: expressed in transfected cells; host or cells: HEK-293
Description: (§1) The affinity of the amine congeners and other antagonists was measured using standard radioligand binding assays for hA1, A2A and A3ARs (Table 1).[1],[13],[14],[22] Membranes of human embryonic kidney (HEK)293 cells expressing the AR of interest were used in the assay. Primary amine congeners 6a–6d containing spacers of 2–5 methylenes were similar in terms of hA2AAR affinity (Ki 6–9 nM), with the butylamino congener 6c displaying the highest A2AAR selectivity in the series. The affinity of this compound for the hA3AR was determined to be 6.0 μM, with only slightly higher hA1AR affinity. Homologation to 6 methylenes in compound 6e lowered A2AAR affinity. […] No dependence of the affinity on the chain length was evident when comparing AlexaFluor647 conjugates 9 and 10.
(§2) Cell culture for membrane binding assays and flow cytometry: HEK-293 cells stably expressing the A2AAR were grown in Dulbecco’s Modified Eagle’s Medium (DMEM) with 10% FBS, 100 units/ml penicillin, […] streptomycin, 2 mM L-glutamine and 0.500 mg/mL G418 Sulfate (Geneticin). […]
(§3) Radioligand binding assays: Cell membranes were prepared as reported.1
(§4) Binding assays were carried out using standard radioligands and membrane preparations from HEK-293 cells stably expressing the human (h) A1, A2A or A3ARs or mouse (m) A1, A2A or A3ARs. The radioligands used were: A1AR, [3H]8-cyclopentyl-1,3-dipropylxanthine 14; A2AAR, [3H]2; A3AR, [125I]N6-(4-amino-3-iodobenzyl)adenosine-5′-N-methyluronamide 16. The radioligand for archival A2AAR affinity data presented in Table 1 was [3H]2-[p-(2-carboxyethyl)phenyl-ethylamino]-5′-N-ethylcarboxamidoadenosine 15. Nonspecific binding was determined using 10 µM 8-[4-[[[[(2-aminoethyl)amino]carbonyl]methyl]oxy]phenyl]-1,3-dipropylxanthine 17 (A1AR and A2AAR) or 10 µM adenosine-5′-N-ethyluronamide 18 (A3AR). HEK-293 cells expressing recombinant mA1, A2A, or A3AR […]
(§5) Protein was determined as reported.2 In all the binding experiments, IC50 values and Ki values were calculated using GraphPad Prism software (San Diego, CA). Values are expressed as mean±SEM. […]
(§6) Med. Chem. Comm., 2015, 6:555-563.
(§7) 2. Bradford, M. M. A rapid and sensitive method for the quantitation of microgram quantities of protein utilizing the principle of protein -dye binding. Anal. Biochem. 1976, 72, 248-254.

A1AR = biological target: T2, A1AR (Homo sapiens, UniProt P30542); assay: Competition radioligand binding, hA1AR ([3H]DPCPX); conditions: [3H]DPCPX 0.5 nM; for Ki: HEK-293 membranes, 1 h 25 °C, mean ± SEM, read-out: Affinity, Ki, A1
T2 construct: expressed in transfected cells
T2 sequence (P30542 1-326): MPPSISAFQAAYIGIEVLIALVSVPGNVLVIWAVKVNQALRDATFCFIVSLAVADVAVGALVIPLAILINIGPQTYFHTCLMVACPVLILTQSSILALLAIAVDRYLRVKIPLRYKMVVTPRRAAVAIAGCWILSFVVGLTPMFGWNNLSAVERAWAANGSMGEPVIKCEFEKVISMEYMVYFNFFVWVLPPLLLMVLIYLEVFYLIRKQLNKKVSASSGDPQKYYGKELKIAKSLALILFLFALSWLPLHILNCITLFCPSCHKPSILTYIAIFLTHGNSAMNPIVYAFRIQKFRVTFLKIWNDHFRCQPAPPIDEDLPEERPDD
Description: as §1, with “10. […]” for “10.”
as §3, §4, §5, §6, §7

mA3AR = biological target: T3, mA3AR (Mus musculus, UniProt Q61618); assay: Competition radioligand binding, mA3AR; conditions: for inhibition at 10 µM: mouse A3AR, percent inhibition at 10 μM, read-out: % inhib, A3 (m) (converted)
T3 construct: expressed in transfected cells; host or cells: HEK-293
T3 sequence (Q61618 1-319): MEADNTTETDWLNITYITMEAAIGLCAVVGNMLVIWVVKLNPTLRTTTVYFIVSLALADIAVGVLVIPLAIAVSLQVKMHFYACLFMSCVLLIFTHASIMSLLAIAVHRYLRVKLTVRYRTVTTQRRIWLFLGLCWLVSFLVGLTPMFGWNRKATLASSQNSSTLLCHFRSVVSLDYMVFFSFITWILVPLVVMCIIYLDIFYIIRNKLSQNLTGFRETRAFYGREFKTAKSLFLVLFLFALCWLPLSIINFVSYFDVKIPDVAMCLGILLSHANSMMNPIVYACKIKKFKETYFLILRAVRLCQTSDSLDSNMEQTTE
Description: as §1, with “10. […]” for “10.”
as §3, §4, §5, §6, §7

A2AAR = biological target: T4, A2AAR (Homo sapiens, UniProt P29274); assay: Competition radioligand binding, hA2AAR ([3H]ZM241385 or [3H]CGS21680); conditions: for fold weaker A2AAR affinity with respect to the parent amino derivative 6c / Ki: human A2AAR; for Ki: HEK-293 membranes, [3H]ZM241385 1.0 nM, 1 h 25 °C, mean ± SEM, read-out: Affinity, Ki, A2A
T4 construct: expressed in transfected cells
Description: as §1
Fig. 1 Antagonist radioligand ([^3H]2, 1.0 nM) binding inhibition curves for the hA2AAR for four antagonist fluorescent conjugates. Compound numbers: MRS7322 9, MRS7395 10, MRS7396 11 and MRS7416 12. Membranes from HEK-293 cells expressing the hA2AAR were used, and their incubation was performed for 1 h at 25 °C. Results are expressed as the mean ± SEM.
as §2, §3, §4, §5, §6, §7

A3AR = biological target: T5, A3AR (Homo sapiens, UniProt P0DMS8); assay: Competition radioligand binding, hA3AR ([125I]I-AB-MECA); conditions: [125I]I-AB-MECA 0.2 nM; for inhibition at 10 µM: percent inhibition at 10 μM, read-out: % inhib, A3
T5 construct: expressed in transfected cells
T5 sequence (P0DMS8 1-318): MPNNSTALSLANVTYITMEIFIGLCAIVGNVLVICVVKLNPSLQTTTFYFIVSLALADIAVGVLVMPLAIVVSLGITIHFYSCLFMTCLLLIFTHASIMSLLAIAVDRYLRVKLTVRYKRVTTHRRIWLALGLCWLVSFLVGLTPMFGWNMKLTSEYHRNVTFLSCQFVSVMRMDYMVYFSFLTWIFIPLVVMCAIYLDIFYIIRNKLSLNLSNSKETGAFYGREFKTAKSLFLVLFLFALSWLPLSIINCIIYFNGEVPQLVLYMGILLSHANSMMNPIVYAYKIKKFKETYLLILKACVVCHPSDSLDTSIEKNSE
Description: as §1, with “10. […]” for “10.”
as §3, §4, §5, §6, §7

T4 sequence (P29274 whole entry): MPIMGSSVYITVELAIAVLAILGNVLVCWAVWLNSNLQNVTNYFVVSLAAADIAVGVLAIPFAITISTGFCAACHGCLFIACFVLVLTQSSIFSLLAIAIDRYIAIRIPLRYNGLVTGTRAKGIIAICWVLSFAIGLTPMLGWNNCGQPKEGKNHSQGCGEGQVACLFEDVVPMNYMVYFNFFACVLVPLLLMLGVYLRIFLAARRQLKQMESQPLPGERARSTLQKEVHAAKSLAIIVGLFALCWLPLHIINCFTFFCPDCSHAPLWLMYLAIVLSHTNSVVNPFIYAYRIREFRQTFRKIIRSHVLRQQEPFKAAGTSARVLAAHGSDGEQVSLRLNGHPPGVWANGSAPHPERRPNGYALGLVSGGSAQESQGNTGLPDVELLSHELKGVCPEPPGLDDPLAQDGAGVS
T1 sequence (Q60613 whole entry): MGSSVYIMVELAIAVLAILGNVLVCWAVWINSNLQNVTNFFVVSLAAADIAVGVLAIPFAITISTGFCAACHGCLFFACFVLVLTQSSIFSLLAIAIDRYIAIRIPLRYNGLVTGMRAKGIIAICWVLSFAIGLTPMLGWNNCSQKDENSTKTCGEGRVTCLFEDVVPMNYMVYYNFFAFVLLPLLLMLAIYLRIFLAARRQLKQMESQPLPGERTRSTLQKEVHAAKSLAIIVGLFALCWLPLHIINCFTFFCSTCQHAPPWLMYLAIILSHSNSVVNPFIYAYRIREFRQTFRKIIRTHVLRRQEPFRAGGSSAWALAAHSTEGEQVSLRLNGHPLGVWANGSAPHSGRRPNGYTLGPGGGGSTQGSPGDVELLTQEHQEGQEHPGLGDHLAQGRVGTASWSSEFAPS

Ki (mA2AAR)	inhibition at 10 µM (A1AR; percent inhibition at 10 μM)	inhibition at 10 µM (mA3AR)	fold weaker A2AAR affinity with respect to the parent amino derivative 6c (A2AAR)	Ki (A2AAR)	inhibition at 10 µM (A3AR)	Ki (A1AR)	binding to the mA3AR (mA3AR; result in words)	A2AAR selectivity compared to the hA1AR (A2AAR; hA2AAR vs hA1AR binding)	A2AAR selectivity compared to the hA3AR (A2AAR; hA2AAR vs hA3AR binding)	Ki (A3AR; HEK-293 membranes, 1 h 25 °C, mean ± SEM, read-out: Affinity, Ki, A3)	Structure (SMILES)
2.1 nM and 2.09 nM	40%	2%	4 fold	24.6 ± 17.6 nM	33%						Nc1nc2c(cnn2CCCc2ccc(OCC(=O)NCCCCNC(=O)CCCCCNC(=O)COc3ccc(/C=C/C4=[N+]5C(=Cc6ccc(-c7cccs7)n6[B-]5(F)F)C=C4)cc3)cc2)c2nc(-c3ccco3)nn12 [compound 11]
585 nM		5%	4 fold	30.3 ± 4.9 nM	32%	1680 ± 470 nM					CCN(CC)CC.CCN(CC)CC.N=c1ccc2c(-c3ccc(C(=O)NCCCCNC(=O)COc4ccc(CCCn5ncc6c5nc(N)n5nc(-c7ccco7)nc65)cc4)cc3C(=O)O)c3ccc(N)c(S(=O)(=O)O)c3oc-2c1S(=O)(=O)O [compound 12]
64.1 nM		4%		6.2 nM		4190 ± 750 nM	insignificant	671 fold	426 fold	2660 ± 1250 nM	N.Nc1nc2c(cnn2CCCc2ccc(OCc3ccc(S(=O)(=O)O)cc3)cc2)c2nc(-c3ccco3)nn12 [compound 13]
